How the values were obtained:
Type in all cases: cell-based
[1] = test system: Staphylococcus aureus (strain 906); test: Antimicrobial activity of samples: death time of test-microorganism Staphylococcus aureus
E. coli (strain 1257) = test: Antimicrobial activity of samples: death time of test-microorganism E. coli
[2] = test system: Bacillus cereus (strain 96); test: Antimicrobial activity of samples: death time of test-microorganism Bacillus cereus; settings: sample concentration 5.0 %
[3] = statement of the text on Table 1

Compound	Death time of test-microorganisms (min) Staphylococcus aureus ([1]; sample concentration 0.1 %) [min]	Death time of test-microorganisms (min) Staphylococcus aureus ([1]; sample concentration 5.0 %) [min]	Death time of test-microorganisms (min) E. coli (E. coli (strain 1257); sample concentration 0.1 %) [min]	Death time of test-microorganisms (min) E. coli (E. coli (strain 1257); sample concentration 5.0 %) [min]	Death time of test-microorganisms (min) Staphylococcus aureus ([1]; sample concentration 0.2 %) [min]	Death time of test-microorganisms (min) Staphylococcus aureus ([1]; sample concentration 0.5 %) [min]	Antibacterial action in words towards gram positive bacteria (vegetative forms) [1, 3]	Death time of test-microorganisms (min) Bacillus cereus [2] [min]	Death time of test-microorganisms (min) E. coli (E. coli (strain 1257); sample concentration 0.2 %) [min]	Death time of test-microorganisms (min) E. coli (E. coli (strain 1257); sample concentration 0.5 %) [min]	Antibacterial action in words towards gram negative bacteria (vegetative forms) (E. coli (strain 1257); [3])
O=C(O)CN(CCN(CC(=O)O)CC(=O)O)CC(=O)O.[Zn] [Ethylenediaminotetraacetate zinc complex]	>30	>30	>30	>30	–	–	–	–	–	–	–
Monoglycinatecopper chloride complex	>30	>30	>30	–	>30	>30	high enough efficacy	>360	30	15	high enough efficacy
